Data reported in patent US20230339896A1, “HPK1 INHIBITORS AND USES THEREOF” (QILU REGOR THERAPEUTICS INC., priority 2020, published 2023).

What was measured:
Human Pan T cells = experiment: IL2 & IFN-γ released by human pan T cell (ELISA); assay type: cell-based; conditions: for EC50 / Human Pan T cells EC2x (nM, IL-2): IL-2, anti-CD3/CD28 stimulation, 48 hours; for Human Pan T cells EC2x (nM, IL-2): concentration giving 200% response (2 folds) over DMSO control; for Max fold change: IL-2 response over DMSO control, human pan T cells
Text: This example is an assay method that can be used to determine compound effects on IL2 & IFN-γ release using pan T cells and ELISA assay format.
Procedures for Pan T isolation and Reagent preparation (Day 0): • 1. Cell Growth Medium: • RPMI1640: ATCC, Cat# 30-2001 • 10% FBS: Gibco, Cat# 10099141 • 1% Pen-Strep: Gibco, Cat # 15140122 • 1% Non-essential amino: Gibco, Cat #11140050 • Beta- Mercaptoethanol: Gibco, Cat#21985023 • 2. Pan T isolation buffer preparation: • Prepare a solution containing phosphate-buffered saline (PBS), pH 7.2, 0.5% bovine serum albumin (BSA), and 2 mM EDTA by diluting MACS® BSA Stock Solution (# 130-091-376) 20 times with autoMACS® Rinsing Solution. Keep buffer at 4° C. Degas buffer before use, as air bubbles could block the column.
• 3. Thawing of frozen PBMC • 1) Pre-heat medium at 37° C. water bath. • 2) Rapidly thaw cells in 37° C. water bath. • 3) Add the pre-warmed medium into 15 mL tube. Transfer cells to the tube. • 4) 300 × g centrifuge for 8 min. (centrifuge increase 0, decrease 0). • 5) Wash the PBMC using Rinsing buffer. • 6) Centrifuge PBMC at 300 × g for 8 min, wash it twice (centrifuge increase 9, decrease 1). • 7) Resuspend the cells with Pan T cells isolation buffer and count cells number. • 4. Pan T cells isolation: • Cell staining with microbead cocktail • 1) Prepare cells and determine cell number. Filter cells by 70 µm cell strainer. • 2) Resuspend cell pellet in 40 µL of buffer per 10^7 total cells. • 3) Add 10 µL of Pan T Cell Biotin-Antibody Cocktail per 10^7 total cells. • 4) Mix well and incubate for 10 minutes in the refrigerator (ice). • 5) Add 30 µL of buffer per 10^7 total cells. • 6) Add 20 µL of Pan T Cell MicroBead Cocktail per 10^7 total cells. • 7) Mix well and incubate for 15 minutes in the refrigerator (ice). • 8) Proceed to subsequent magnetic cell separation.
Subsequent manual cell separation: • 1) Place LS Column in the magnetic field of a suitable MACS Separator. For details refer to the respective MACS Column data sheet. • 2) Prepare column by rinsing with 3 mL of buffer. • 3) Apply cell suspension onto the column. Collect flow-through, which represents the enriched T cells. • 4) Wash column with 5 mL of buffer. Collect unlabeled cells that pass through, representing the enriched T cells.
Reminder: Always wait until the column reservoir is empty before proceeding to the next step. • 5. Pan T cell FACS: • 1) Take out 50 µL of PBMC and Pan T cells to FACS tubes respectively. • 2) Incubate cells with anti-human CD3/CD4/CD8 antibodies (1 µL/1 µL/1 µL /tube) for 20 min at 4° C. For unstained control, incubate cells with FACS staining buffer. • 3) Wash 2 times with cold staining buffer (PBS with 0.2%BSA and 1 mM EDTA). • 4) Run FACS. Gate CD3^+, CD3^+CD4^+, and CD3^+CD8^+ population for % analysis. • 5) If the purity of Pan T cells is higher than 90%, dilute cell suspension to 1 million cells/mL with the appropriate volume of Cell Culture Media. • 6) Dispense the cell suspension into a sterile, disposable reservoir for future use.
Procedures for preparation of compounds and anti-human CD3/CD28 (Day 0): • 1. Compound preparation • Compound serial dilution (source plate 1000×) • Compounds are solubilized in 100% DMSO to a concentration of 10 mM. Then they were 3-fold serially diluted to 8-point doses. • 4× Compound dose preparation (inter plate: Corning-3599): • Prepare 4× compound solution in culture medium. Pipet up and down. For the ZPE control, prepare 0.4% DMSO (4×) in culture medium. For the HPE control, prepare 0.4 µM of RGT003-026 (4×) in culture medium. • 2. Anti-human CD3 (stock conc. 6.76 mg/ml): stored at 4° C. • 1) Dilute anti-human CD3 with PBS to final conc. of 0.5 µg/mL. • 2) Add 50 µL /well of CD3 to each well, except for the positive and negative control wells. […] Rinse each well twice with 200 µL of sterile PBS each time. • 3. […]

HPK1 = HPK1 (Homo sapiens (Human), UniProt Q92918); experiment: HPK1 biochemical assay (ADP-GLO Kinase Assay); conditions: ADP-GLO, 10 µM ATP, MBP substrate; read-out: HPK1 IC50
Text: This example used the ADP-GLO™ Kinase Assay to measure the effect of potential HPK1 inhibitor compounds on HPK1 kinase activity.
The ADP-GLO™ Kinase Assay (Promega Corp., Madison, WI) measures ADP formed from a kinase reaction. According to the manufacture, the ADP formed in a kinase assay is first converted into ATP, which is then used to generate light in a luciferase reaction. The luminescence generated correlates with kinase activity. An exemplary experimental setting is described below, though minor adjustments can be made in individual assays.
Serial 3-fold dilution of compoounds from 10 µM (top concentration) to 0.508 nM (lowest concentration). Positive control is 10 µM Reference + enzyme + substrate. Negative control is 1% DMSO + enzyme + substrate.
40 mM Tris pH7.5; 20 mM MgC12, 0.1 mg/ml BSA, 50 µM DTT Buffer stock
• 1) The compounds were diluted to 1 mM, by mixing 10 µL of 10 mM respective compound stocks with 90 µL of DMSO. • 2) The compounds were then diluted 3-fold for 10 doses (5 µL to 10 µL dilution) by BRAVO. The top compound conc. was 1 mM (100×), DMSO Conc. was 100%. • 3) Transfer 100 nL of each diluted compound sample to 384-well plate (Corning-4512) by ECHO. • 4) Centrifuge the plate at 1,500 rpm for 1 minute.
20 µM ATP, 0.2 µg/µL MBP in Kinase Buffer (final concentration: 10 µM ATP, 0.1 µg/µL MBP)
• 5. Preparation of 2× HPK1 working solution with assay buffer. HPK1 final concentration was 0.6 ng/µL. […] Add 5 µL/well of 2× HPK1 working solution, Centrifuge at 1,500 rpm for 1 minute. • 7. Add 5 µL/well of 2× ATP-Substrate, Centrifuge at 1,500 rpm for 1 minute. • 8. Incubate at 25° C. for 1 hour (or 6 hours for compounds with high potency). • 9. Add 5 µL/well ADP-GLO™ Reagent to stop the kinase reaction and deplete the unconsumed ATP. Centrifuge at 1,500 rpm for 1 minute. Incubate at 25° C. for 40 min. • 10. Add 10 µL of Kinase Detection Reagent to convert ADP to ATP. Centrifuge at 1,500 rpm for 1 minute. Incubate at 25° C. for 40 min. • 11. Record luminescence signal on an Envision plate reader (384-CTG).
The percent (%) inhibition at each concentration of compound is calculated based on and relative to the signal in the High and Low control wells contained within each assay plate. […] The concentrations and % inhibition values for tested compounds were plotted and the concentration of compound required for 50% inhibition (IC50) was determined with a Three-parameter logistic dose response equation. The endpoint value (IC50) for the reference peptide/compound was evaluated in each experiment as a quality control measure. If the endpoint value was within 3-fold of the expected value, then the experiment was deemed acceptable.

HPK1, sequence (Q92918 whole entry): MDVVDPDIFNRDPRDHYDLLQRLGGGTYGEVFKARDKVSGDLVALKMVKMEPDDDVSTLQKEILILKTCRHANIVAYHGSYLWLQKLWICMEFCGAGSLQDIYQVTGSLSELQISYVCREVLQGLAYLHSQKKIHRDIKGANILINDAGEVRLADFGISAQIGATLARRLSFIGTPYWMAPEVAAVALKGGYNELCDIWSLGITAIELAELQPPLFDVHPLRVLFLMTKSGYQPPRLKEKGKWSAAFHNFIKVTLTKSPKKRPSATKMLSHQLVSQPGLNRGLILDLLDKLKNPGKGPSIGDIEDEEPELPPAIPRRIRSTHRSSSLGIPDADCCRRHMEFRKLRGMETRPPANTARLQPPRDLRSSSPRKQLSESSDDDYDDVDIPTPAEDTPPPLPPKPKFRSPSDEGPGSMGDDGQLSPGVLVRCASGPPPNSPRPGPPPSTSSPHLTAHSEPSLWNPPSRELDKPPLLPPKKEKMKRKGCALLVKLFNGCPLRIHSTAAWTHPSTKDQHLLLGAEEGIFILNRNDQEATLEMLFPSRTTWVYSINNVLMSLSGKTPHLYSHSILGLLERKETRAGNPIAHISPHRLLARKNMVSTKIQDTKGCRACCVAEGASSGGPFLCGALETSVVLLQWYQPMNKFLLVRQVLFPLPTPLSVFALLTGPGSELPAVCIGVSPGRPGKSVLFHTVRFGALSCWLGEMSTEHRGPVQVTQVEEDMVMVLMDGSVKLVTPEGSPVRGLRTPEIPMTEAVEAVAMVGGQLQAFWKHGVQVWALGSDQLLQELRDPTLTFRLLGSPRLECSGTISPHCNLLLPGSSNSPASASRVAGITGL

EC50 (Human Pan T cells)	IC50 (HPK1)	EC50 (Human Pan T cells; Homo sapiens, T-cell)	SMILES	Human Pan T cells EC2x (nM, IL-2) (Human Pan T cells)	Max fold change (Human Pan T cells)
911 nM	24 nM		COc1cc2c(cc1Nc1ncc(Cl)c(N3C[C@@](C)(CC(=O)O)c4ccccc43)n1)CN(C)CC2 (single isomer, unassigned) [Example 3, (S)-2-(1-(5-chloro-2-((6-methoxy-2-methyl-1,2,3,4-tetrahydroisoquinolin-7-yl)amino)pyrimidin-4-yl)-3-methylindolin-3-yl)acetic acid or (R)-2-(1-(5-chloro-2-((6-methoxy-2-methyl-1,2,3,4-tetrahydroisoquinolin-7-yl)amino)pyrimidin-4-yl)-3-methylindolin-3-yl)acetic acid]	> 5760 (N = 2) nM	1.96 (N = 2)
	1.1 nM	68 nM	COc1cc2c(cc1Nc1ncc(Cl)c(N3CC(C)(CC(=O)O)c4cc(F)ccc43)n1)CN(C)CC2 (centres unmarked) [Compound 9, reference compound]	62 (N = 2) nM	3.24 (N = 2)
